System: alpha-smooth muscle actin (α-SMA)
Assay: Inhibition of TGF-β induced expression of alpha-smooth muscle actin (α-SMA) in CFSC cells, western blot
Format: cell-based
Details: compound at 10 μM, TGF-β (10 ng/mL), 24 hours, decrease in band intensity vs TGF-β only
Procedure: The ability of a compound to inhibit the TGF-β induced expression of alpha-smooth muscle actin (α-SMA) was evaluated in CCL4-treated fat storing (CFSC) cells. α-SMA is considered as a reliable marker of hepatic stellate cell activation and a key biomarker for liver fibrosis. See, e.g., Meng et al., Nat. Rev. Nephrol. 2016, 12, 325-38; Fabregat et al., FEBS J. 2016, 283, 2219-32.
CFSC cells maintained in a DMEM medium supplemented with 10% fetal bovine serum were seeded to 12-well culture dishes and grown to a confluence of 60-70% the next day. Culture was changed to a serum-free DMEM medium and treated with a compound at 10 μM in the presence of TGF-β (10 ng/mL). The cells were incubated for another 24 hours. All culture was maintained at 37° C. in 5% carbon dioxide.
A NP-40 lysate solution (50 mM Tris (pH 7.4), 150 mM NaCl, 1% NP-40) with EDTA free cocktail added was used to lyse the cells on ice for 30 min. The lysate was collected and centrifuged at 4° C. for 10 min at 12,000 rpm. The pellet was discarded and the supernatant was transferred to a new tube. Cell lysates were loaded with 5×loading buffer and boiled for 10 min, resolved by 10% SDS-polyacrylamide gel electrophoresis (SDS-PAGE), and transferred to PVDF membrane. The membrane was blocked with 5% skim milk in Tris-buffered saline and TWEEN® 20 (TBST; 10 mM Tris-HCl (pH 8.0), 150 mM NaCl, 0.1% TWEEN® 20) for 1 h at room temperature and then incubated with α-SMA and […] antibodies overnight at 4° C. After washing twice with TBST, the membrane was probed with a horseradish […] anti-immunoglobulin (1:5000 dilution) for 1 h at room temperature. After two subsequent rinses in TBST, immunoreactive products were reacted with ECL and visualized by a UVP CHEMSTUDIO™ imaging system. The western blotting bands are quantitated using an ImageJ software. The percentage of inhibition was obtained by calculating the percentage decrease in the band intensity compared to the one treated with TGF-β only.
The results are summarized in Table 1, wherein A represents a value no less of 90% inhibition, B represents a value less than 90% but no less than 80% inhibition, C represents a value less than 80% but no less than 70% inhibition, D represents a value less than 70% but no less than 50% inhibition, and E represents a value less than 50% with a compound at 10 μM.

Compound | inhibition at 10 µM
CCCN(c1ccc(F)cc1)c1ccc(/C=C2/C(C)=C(CC(=O)O)c3cc(F)ccc32)cc1 [Compound A33, 2-[(1Z)-5-Fluoro-1-({4-[(4-fluorophenyl)(propyl)amino]phenyl}methylidene)-2-methyl-1H-inden-3-yl]acetic acid] | 70 to 80%
CC1=C(CC(=O)O)c2cc(F)ccc2/C1=C\c1ccc(N(CCO)c2ccc(F)cc2)cc1 [Compound A34, 2-[(1Z)-5-Fluoro-1-({4-[(4-fluorophenyl)(2-hydroxyethyl)amino]phenyl}-methylidene)-2-methyl-1H-inden-3-yl]acetic acid] | > 90%
CC1=C(CC(=O)O)c2cc(F)ccc2/C1=C\c1ccc(N(c2ccc(F)cc2)c2ccc(C=O)cc2)cc1 [Compound A35, 2-[(1Z)-5-Fluoro-1-({4-[(4-fluorophenyl)(4-formylphenyl)amino]phenyl}-methylidene)-2-methyl-1H-inden-3-yl]acetic acid] | > 90%
CC1=C(CC(=O)O)c2cc(F)ccc2/C1=C\c1ccc(N(c2ccccc2)c2ccc(C=O)cc2)cc1 [Compound A36, 2-[(1Z)-5-Fluoro-1-({4-[(4-formylphenyl)(phenyl)amino]phenyl}methylidene)-2-methyl-1H-inden-3-yl]acetic acid] | > 90%
CC1=C(CC(=O)NO)c2cc(F)ccc2/C1=C\c1ccc(N(Cc2ccccc2)c2ccc(F)cc2)cc1 [Compound A38, 2-[(1Z)-1-({4-[Benzyl(4-fluorophenyl)amino]phenyl}methylidene)-5-fluoro-2-methyl-1H-inden-3-yl]-N-hydroxyacetamide] | 70 to 80%
CC1=C(Cc2nnn[nH]2)c2ccccc2/C1=C\c1cccc(Oc2ccccc2)c1 [Compound A39, 5-{[(1Z)-2-Methyl-1-[(3-phenoxyphenyl)methylidene]-1H-inden-3-yl]methyl}-1H-1,2,3,4-tetrazole] | > 90%
CC1=C(Cc2nnn[nH]2)c2ccccc2/C1=C\c1ccc(Oc2ccccc2)cc1 [Compound A40, 5-{[(1Z)-2-Methyl-1-[(4-phenoxyphenyl)methylidene]-1H-inden-3-yl]methyl}-1H-1,2,3,4-tetrazole] | > 90%
CC1=C(CCc2nnn[nH]2)c2ccccc2/C1=C\c1ccc(Oc2ccc(Br)cc2)cc1 [Compound A42, 5-{2-[(1Z)-1-{[4-(4-Bromophenoxy)phenyl]methylidene}-2-methyl-1H-inden-3-yl]ethyl}-1H-1,2,3,4-tetrazole] | 70 to 80%
CC1=C(CCc2nnn[nH]2)c2ccccc2/C1=C\c1ccc(Oc2ccc(C(C)C)cc2)cc1 [Compound A43, 5-{2-[(1Z)-2-Methyl-1-({4-[4-(propan-2-yl)phenoxy]phenyl}methylidene)-1H-inden-3-yl]ethyl}-1H-1,2,3,4-tetrazole] | > 90%
CC1=C(CCc2nnn[nH]2)c2ccccc2/C1=C\c1ccc(Oc2ccc(C(F)(F)F)cc2)cc1 [Compound A45, 5-{2-[(1Z)-2-Methyl-1-({4-[4-(trifluoromethyl)phenoxy]phenyl}methylidene)-1H-inden-3-yl]ethyl}-1H-1,2,3,4-tetrazole] | > 90%
CC1=C(CCc2nnn[nH]2)c2ccccc2/C1=C\c1ccc(Oc2cccc(C)c2)cc1 [Compound A46, 5-{2-[(1Z)-2-Methyl-1-{[4-(3-methylphenoxy)phenyl]methylidene}-1H-inden-3-yl]ethyl}-1H-1,2,3,4-tetrazole] | > 90%
CC1=C(CCc2nnn[nH]2)c2ccccc2/C1=C\c1ccc(Oc2cccc(C#N)c2)cc1 [Compound A47, 3-(4-{[(1Z)-2-Methyl-3-[2-(1H-1,2,3,4-tetrazol-5-yl)ethyl]-1H-inden-1-ylidene]methyl}phenoxy)benzonitrile] | > 90%
COc1cccc(Oc2ccc(/C=C3/C(C)=C(CCc4nnn[nH]4)c4ccccc43)cc2)c1 [Compound A48, 5-{2-[(1Z)-1-{[4-(3-Methoxyphenoxy)phenyl]methylidene}-2-methyl-1H-inden-3-yl]ethyl}-1H-1,2,3,4-tetrazole] | > 90%
CC1=C(CCc2nnn[nH]2)c2ccccc2/C1=C\c1ccc(Oc2ccc3ccccc3c2)cc1 [Compound A51, 5-{2-[(1Z)-2-Methyl-1-{[4-(naphthalen-2-yloxy)phenyl]methylidene}-1H-inden-3-yl]ethyl}-1H-1,2,3,4-tetrazole] | > 90%
C1=C(Cc2nnn[nH]2)c2ccccc2/C1=C/c1cccc(Oc2ccccc2)c1 [Compound A54, 5-{[(1E)-1-[(3-Phenoxyphenyl)methylidene]-1H-inden-3-yl]methyl}-1H-1,2,3,4-tetrazole] | > 90%
CC1=C(CC(=O)O)c2cc(F)ccc2/C1=C\c1ccc(N2CCOCC2)cc1 [Compound A55, 2-[(1Z)-5-Fluoro-2-methyl-1-{[4-(morpholin-4-yl)phenyl]methylidene}-1H-inden-3-yl]acetic acid] | < 50%
CC1=C(CC(=O)O)c2cc(F)ccc2/C1=C\c1ccc(-n2cccc2)cc1 [Compound A60, 2-[(1Z)-5-Fluoro-2-methyl-1-{[4-(1H-pyrrol-1-yl)phenyl]methylidene}-1H-inden-3-yl]acetic acid] | < 50%
CC1=C(CC(=O)O)c2c(ccc(F)c2F)/C1=C\c1ccc(Oc2ccc(F)cc2)cc1 [Compound A68, 2-[(1Z)-4,5-Difluoro-1-{[4-(4-fluorophenoxy)phenyl]methylidene}-2-methyl-1H-inden-3-yl]acetic acid] | > 90%
CC1=C(CC(=O)O)c2c(ccc(F)c2C)/C1=C\c1ccc(Oc2ccc(F)cc2)cc1 [Compound A69, 2-[(1Z)-5-Fluoro-1-{[4-(4-fluorophenoxy)phenyl]methylidene}-2,4-dimethyl-1H-inden-3-yl]acetic acid] | > 90%
CC1=C(CC(=O)NO)c2cc(F)ccc2/C1=C\c1ccc(N(CCO)c2ccc(F)cc2)cc1 [Compound A85, 2-[(1Z)-5-Fluoro-1-({4-[(4-fluorophenyl)(2-hydroxyethyl)amino]phenyl}-methylidene)-2-methyl-1H-inden-3-yl]-N-hydroxyacetamide] | > 90%
CC1=C(CC(=O)O)c2cc(F)ccc2/C1=C\c1ccc(C(C)(C)C)cc1 [Compound B10, (Z)-2-(5-fluoro-2-methyl-1-(4-t-butylbenzylidene)-1H-inden-3-yl)acetic acid] | 70 to 80%
CC1=C(CCc2nnn[nH]2)c2ccccc2/C1=C\c1ccc(C(C)C)cc1 [Compound B30, (Z)-5-(2-(1-(4-isopropylbenzylidene)-2-methyl-1H-inden-3-yl)ethyl)-1H-tetrazole] | > 90%
CC1=C(CC(=O)O)c2cc(F)ccc2/C1=C\c1ccc2ccccc2c1 [Compound B34, 2-[(1Z)-5-fluoro-2-methyl-1-[(naphthalen-2-yl)methylidene]-1H-inden-3-yl]acetic acid] | > 90%
CC1=C(CC(=O)O)c2cc(F)ccc2/C1=C\c1ccc(C)c2ccccc12 [Compound B35, 2-[(1Z)-5-fluoro-2-methyl-1-[(4-methylnaphthalen-1-yl)methylidene]-1H-inden-3-yl]acetic acid] | > 90%
COc1ccc2ccccc2c1/C=C1/C(C)=C(CC(=O)O)c2cc(F)ccc21 [Compound B36, 2-[(1Z)-5-fluoro-1-[(2-methoxynaphthalen-1-yl)methylidene]-2-methyl-1H-inden-3-yl]acetic acid] | > 90%

Reference: patent publication US12649712B2, “Indene compounds, pharmaceutical compositions thereof, and their therapeutic applications” (NucMito Pharmaceuticals Co. Ltd., priority 2020, dated 2026)
